Experiments:
[1] = system: Cardiac muscle of left ventricle; test: (§1) Effect on cardiac electrophysiological profile in Mongrel perfused dog heart left ventricular muscle stimulated at basic cycle length of 1000 milliseconds assessed as action potential time duration at 75% of repolarization at 10 uM measured after 25 mins by glass capillary microelectrode based electrophysiology assay (reference value: 199.7 +/- 16.87 milliseconds); type: functional, Canis lupus familiaris
[2] = system: Cardiac muscle of left ventricle; test: as §1, with “90%” for “75%”, “212.5” for “199.7”, “16.25” for “16.87”; type: functional, Canis lupus familiaris
[3] = system: Cardiac muscle of left ventricle; test: as §1, with “25%” for “75%”, “131.7” for “199.7”, “13.1” for “16.87”; type: functional, Canis lupus familiaris
[4] = target: T1, Potassium/sodium hyperpolarization-activated cyclic nucleotide-gated channel 4 (Mus musculus, UniProt O70507); test: Inhibition of HCN4 in C57BL/6J mouse thalamocortical relay neuron assessed as reduction in hyperpolarization current at holding potential of -120 mV by whole-cell patch clamp assay
T1 sequence (O70507 whole entry): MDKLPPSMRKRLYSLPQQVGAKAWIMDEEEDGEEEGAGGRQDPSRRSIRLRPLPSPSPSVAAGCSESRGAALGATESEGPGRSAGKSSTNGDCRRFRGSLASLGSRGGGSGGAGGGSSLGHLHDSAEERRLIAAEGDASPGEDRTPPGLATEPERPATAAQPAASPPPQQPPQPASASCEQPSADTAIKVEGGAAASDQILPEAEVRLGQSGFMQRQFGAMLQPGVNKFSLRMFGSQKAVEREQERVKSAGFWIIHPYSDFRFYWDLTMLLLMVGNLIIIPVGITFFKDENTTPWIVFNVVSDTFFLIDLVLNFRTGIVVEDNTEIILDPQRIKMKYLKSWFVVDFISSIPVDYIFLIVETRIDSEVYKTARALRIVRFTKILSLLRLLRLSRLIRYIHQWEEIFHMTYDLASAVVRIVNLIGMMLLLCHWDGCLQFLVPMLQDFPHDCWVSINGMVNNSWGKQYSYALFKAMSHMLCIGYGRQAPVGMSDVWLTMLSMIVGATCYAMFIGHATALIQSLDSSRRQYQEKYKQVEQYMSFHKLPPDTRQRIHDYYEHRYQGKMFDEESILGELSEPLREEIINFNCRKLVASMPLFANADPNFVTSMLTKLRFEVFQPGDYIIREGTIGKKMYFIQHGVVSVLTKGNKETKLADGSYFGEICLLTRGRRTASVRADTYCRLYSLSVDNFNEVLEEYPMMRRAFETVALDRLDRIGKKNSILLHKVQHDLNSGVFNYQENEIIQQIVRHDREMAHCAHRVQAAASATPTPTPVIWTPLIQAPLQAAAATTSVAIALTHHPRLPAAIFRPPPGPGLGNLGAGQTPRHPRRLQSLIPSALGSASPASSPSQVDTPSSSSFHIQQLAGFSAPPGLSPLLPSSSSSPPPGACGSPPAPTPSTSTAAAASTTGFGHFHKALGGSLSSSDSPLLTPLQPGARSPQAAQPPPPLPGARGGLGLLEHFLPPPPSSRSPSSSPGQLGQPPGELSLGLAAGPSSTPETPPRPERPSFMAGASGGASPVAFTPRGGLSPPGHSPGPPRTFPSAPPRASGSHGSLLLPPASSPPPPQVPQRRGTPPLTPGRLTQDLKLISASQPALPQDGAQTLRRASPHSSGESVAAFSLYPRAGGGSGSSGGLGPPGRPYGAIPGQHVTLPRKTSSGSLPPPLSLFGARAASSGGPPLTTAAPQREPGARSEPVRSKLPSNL

Mus musculus = organism: Mus musculus; test: Effect on voltage-dependent K+ channel in C57BL/6J mouse thalamocortical relay neuron assessed as inhibition of step depolarization-induced K+ outward current at 10 uM by whole cell patch clamp assay relative to control
[5] = target: T2, Potassium/sodium hyperpolarization-activated cyclic nucleotide-gated channel 4 (Mus musculus) (UniProt O70507); test: Inhibition of HCN4 in C57BL/6J mouse thalamocortical relay neuron assessed as reduction in hyperpolarization current at 30 uM at holding potential of -120 mV by whole-cell patch clamp assay relative to control
T2 sequence (whole entry): T1 sequence (O70507 whole entry)

[6] = system: Cardiac muscle of left ventricle; test: as §1, with “maximum diastolic” for “action”, “potential” for “potential time duration”, “1” for “75% of repolarization at 10”, “-83.8” for “199.7”, “2.28 mV)” for “16.87 milliseconds)”; type: functional, Canis lupus familiaris

COc1ccc(CCN(C)[C@@H]2CCC[C@H](N3CCc4cc(OC)c(OC)cc4CC3=O)C2)cc1OC (racemic)
Time [1]: 206 ms | Time [2]: 220.2 ms | Time [3]: 125.1 ms | EC50 [4]: 11 µM | inhibition (Mus musculus): 14.5% | inhibition [5]: 91.3% | Activity [6]: -84 mV
